One block for each compound: values may come before it.
Experiments:
Ishikawa [1] = experiment: Inhibition of estrogen stimulation in human Ishikawa cells by alkaline phosphatase quantitation; type: functional, cell-based; settings: for IC50: Homo sapiens, Ishikawa
[2] = Drug level in Sprague-Dawley rat plasma at 10 mg/kg, po after 6 hrs; type: ADME, organism-based; parameters: dose 10 mg/kg, route oral; settings: read-out: Drug uptake
Rattus norvegicus [3] = experiment: Inhibition of estrogen stimulation in Sprague-Dawley rat at 10 mg/kg; type: functional
Ishikawa [4] = experiment: Increase in estrogen stimulation in human Ishikawa cells by alkaline phosphatase quantitation at 1 uM relative to control; type: functional
[5] = Drug level in Sprague-Dawley rat brain at 10 mg/kg, po after 6 hrs; type: ADME, organism-based; parameters: dose 10 mg/kg, route oral; settings: read-out: Drug uptake
Rattus norvegicus [6] = experiment: Inhibition of estradiol-induced increase in uterine wet weight in orally dosed Sprague-Dawley rat after 3 days; type: functional; settings: po, 72 h
Estrogen receptor = biological target: T1, Estrogen receptor (Homo sapiens, UniProt P03372)
T1 sequence (P03372 whole entry): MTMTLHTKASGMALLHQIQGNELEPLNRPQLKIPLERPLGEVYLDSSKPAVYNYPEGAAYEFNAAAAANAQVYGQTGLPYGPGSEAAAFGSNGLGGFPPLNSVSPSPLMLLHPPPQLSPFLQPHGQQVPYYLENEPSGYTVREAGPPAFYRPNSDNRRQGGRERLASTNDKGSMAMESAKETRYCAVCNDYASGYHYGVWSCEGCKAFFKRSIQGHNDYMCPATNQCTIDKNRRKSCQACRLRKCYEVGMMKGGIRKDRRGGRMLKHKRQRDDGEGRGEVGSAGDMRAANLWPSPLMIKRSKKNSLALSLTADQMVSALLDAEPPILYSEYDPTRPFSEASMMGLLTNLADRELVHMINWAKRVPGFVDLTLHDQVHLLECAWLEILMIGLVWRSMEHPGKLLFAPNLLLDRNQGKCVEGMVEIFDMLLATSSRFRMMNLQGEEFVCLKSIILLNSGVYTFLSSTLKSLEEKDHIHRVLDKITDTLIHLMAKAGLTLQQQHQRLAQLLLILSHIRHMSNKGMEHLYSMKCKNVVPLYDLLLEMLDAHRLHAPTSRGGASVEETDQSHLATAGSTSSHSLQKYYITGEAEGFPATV
Description: Displacement of [3H]estradiol from human recombinant ERalpha

Estrogen receptor beta = Estrogen receptor beta (Homo sapiens, UniProt Q92731); experiment: Displacement of [3H]estradiol from human recombinant ERbeta
[7] = Ratio of log of drug level in brain to blood in Sprague-Dawley rat; type: ADME, tissue-based; settings: read-out: logBB (converted)
Rattus norvegicus [8] = experiment: Increase in uterine wet weight in Sprague-Dawley rat at 0.1 mg/kg; type: functional

Chain of Estrogen receptor beta (Q92731 whole entry): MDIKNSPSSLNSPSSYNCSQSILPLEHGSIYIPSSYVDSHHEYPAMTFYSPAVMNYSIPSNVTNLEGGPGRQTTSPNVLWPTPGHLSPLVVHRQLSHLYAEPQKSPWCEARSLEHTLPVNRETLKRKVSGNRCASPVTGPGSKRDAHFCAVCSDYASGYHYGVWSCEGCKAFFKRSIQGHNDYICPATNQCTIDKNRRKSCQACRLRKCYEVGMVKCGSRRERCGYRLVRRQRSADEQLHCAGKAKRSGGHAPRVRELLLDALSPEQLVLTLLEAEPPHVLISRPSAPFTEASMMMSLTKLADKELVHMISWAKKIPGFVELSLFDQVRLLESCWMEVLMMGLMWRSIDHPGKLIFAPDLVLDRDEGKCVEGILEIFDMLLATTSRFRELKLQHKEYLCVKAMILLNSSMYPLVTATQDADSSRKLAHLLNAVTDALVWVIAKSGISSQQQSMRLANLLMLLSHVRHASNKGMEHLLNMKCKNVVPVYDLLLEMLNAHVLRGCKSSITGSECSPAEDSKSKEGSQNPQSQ

SMILES: CN(C)S(=O)(=O)c1ccc(-c2ccc3cc(O)ccc3c2Oc2ccc(OCCN3CCCCC3)cc2)cc1
- Efficacy (Ishikawa [1]): 99%
- IC50 (Ishikawa [1]): 2.8 nM
- concentration at 6 h [2]: 108 ng/mL
- ED50 (Rattus norvegicus [3]): < 1 mg/kg
- inhibition in vivo at 10 mg/kg (Rattus norvegicus [3]): 83%
- Efficacy (Ishikawa [4]): 27%
- concentration at 6 h [5]: 46 ng/g
- ED50 (Rattus norvegicus [6]): 0.44 mg/kg
- Ki (Estrogen receptor): 0.4 nM
- Ki (Estrogen receptor beta): 1.69 nM
- Kp [7]: 0.427

- concentration at 6 h [2]: 660 ng/mL
- concentration at 6 h [5]: 103 ng/g
- Kp [7]: 0.155
SMILES: CS(=O)(=O)c1ccc(-c2ccc3cc(O)ccc3c2Oc2ccc(OCCN3CCCCC3)cc2)cc1

SMILES: CCS(=O)(=O)c1ccc(-c2ccc3cc(O)ccc3c2Oc2ccc(OCCN3CCCCC3)cc2)cc1
- Efficacy (Ishikawa [1]): 95%
- IC50 (Ishikawa [1]): 6.1 nM
- concentration at 6 h [2]: 357 ng/mL
- ED50 (Rattus norvegicus [3]): < 1 mg/kg
- inhibition in vivo at 10 mg/kg (Rattus norvegicus [3]): 83%
- Efficacy (Ishikawa [4]): 19%
- concentration at 6 h [5]: 43 ng/g
- ED50 (Rattus norvegicus [6]): 0.14 mg/kg
- Ki (Estrogen receptor): 1.22 nM
- Ki (Estrogen receptor beta): 4.19 nM
- Kp [7]: 0.12

SMILES: CC(C)S(=O)(=O)c1ccc(-c2ccc3cc(O)ccc3c2Oc2ccc(OCCN3CCCCC3)cc2)cc1
- Efficacy (Ishikawa [1]): 96%
- IC50 (Ishikawa [1]): 4.9 nM
- ED50 (Rattus norvegicus [3]): < 1 mg/kg
- inhibition in vivo at 10 mg/kg (Rattus norvegicus [3]): 83%
- Efficacy (Ishikawa [4]): 11%
- ED50 (Rattus norvegicus [6]): 0.37 mg/kg
- Ki (Estrogen receptor): 0.73 nM
- Ki (Estrogen receptor beta): 2.17 nM

SMILES: CC(C)c1ccc(-c2sc3cc(O)ccc3c2Oc2ccc(OCCN3CCCCC3)cc2)cc1
- Efficacy (Ishikawa [1]): 95%
- IC50 (Ishikawa [1]): 16.2 nM
- ED50 (Rattus norvegicus [3]): < 1 mg/kg
- inhibition in vivo at 10 mg/kg (Rattus norvegicus [3]): 83%
- Efficacy (Ishikawa [4]): 29%
- ED50 (Rattus norvegicus [6]): 0.16 mg/kg
- Ki (Estrogen receptor): 0.091 nM
- Ki (Estrogen receptor beta): 0.63 nM

SMILES: N#Cc1cccc(-c2ccc3cc(O)ccc3c2Oc2ccc(OCCN3CCCCC3)cc2)c1
- Efficacy (Ishikawa [1]): 94%
- IC50 (Ishikawa [1]): 18.5 nM
- concentration at 6 h [2]: 360 ng/mL
- ED50 (Rattus norvegicus [3]): < 1 mg/kg
- inhibition in vivo at 10 mg/kg (Rattus norvegicus [3]): 83%
- Efficacy (Ishikawa [4]): 23%
- concentration at 6 h [5]: 529 ng/g
- ED50 (Rattus norvegicus [6]): 0.37 mg/kg
- Ki (Estrogen receptor): 0.24 nM
- Ki (Estrogen receptor beta): 0.35 nM

SMILES: Oc1ccc(-c2ccc3cc(O)ccc3c2Oc2ccc(OCCN3CCCCC3)cc2)cc1
- Efficacy (Ishikawa [1]): 96%
- IC50 (Ishikawa [1]): 4.7 nM
- concentration at 6 h [2]: 277 ng/mL
- ED50 (Rattus norvegicus [3]): < 1 mg/kg
- inhibition in vivo at 10 mg/kg (Rattus norvegicus [3]): 83%
- Efficacy (Ishikawa [4]): 13%
- concentration at 6 h [5]: 47 ng/g
- ED50 (Rattus norvegicus [6]): 0.3 mg/kg
- Ki (Estrogen receptor): 0.32 nM
- Ki (Estrogen receptor beta): 0.48 nM
- Kp [7]: 0.17

SMILES: CN(C)C(=O)c1ccc(-c2ccc3cc(O)ccc3c2Oc2ccc(OCCN3CCCCC3)cc2)cc1
- Efficacy (Ishikawa [1]): 95%
- IC50 (Ishikawa [1]): 6.7 nM
- ED50 (Rattus norvegicus [3]): < 1 mg/kg
- inhibition in vivo at 10 mg/kg (Rattus norvegicus [3]): 83%
- Efficacy (Ishikawa [4]): 25%
- ED50 (Rattus norvegicus [6]): 0.19 mg/kg
- Ki (Estrogen receptor): 0.57 nM
- Ki (Estrogen receptor beta): 1.16 nM

SMILES: Oc1ccc2c(Oc3ccc(OCCN4CCCCC4)cc3)c(-c3ccc(F)cc3)ccc2c1
- Efficacy (Ishikawa [1]): 93%
- IC50 (Ishikawa [1]): 3.2 nM
- concentration at 6 h [2]: 151 ng/mL
- ED50 (Rattus norvegicus [3]): < 1 mg/kg
- inhibition in vivo at 10 mg/kg (Rattus norvegicus [3]): 83%
- Efficacy (Ishikawa [4]): 21%
- concentration at 6 h [5]: 2690 ng/g
- ED50 (Rattus norvegicus [6]): 0.015 mg/kg
- Ki (Estrogen receptor): 0.24 nM
- Ki (Estrogen receptor beta): 0.28 nM
- Kp [7]: 17.8

SMILES: Oc1ccc2c(Oc3ccc(OCCN4CCCCC4)cc3)c(-c3ccc(F)c(F)c3)ccc2c1
- Efficacy (Ishikawa [1]): 96%
- IC50 (Ishikawa [1]): 3.9 nM
- concentration at 6 h [2]: 418 ng/mL
- ED50 (Rattus norvegicus [3]): < 1 mg/kg
- inhibition in vivo at 10 mg/kg (Rattus norvegicus [3]): 83%
- Efficacy (Ishikawa [4]): 13%
- concentration at 6 h [5]: 3490 ng/g
- ED50 (Rattus norvegicus [6]): 0.058 mg/kg
- Ki (Estrogen receptor): 0.2 nM
- Ki (Estrogen receptor beta): 0.29 nM
- Kp [7]: 8.32

SMILES: O=S1(=O)CC=C(c2ccc3cc(O)ccc3c2Oc2ccc(OCCN3CCCCC3)cc2)CC1
- Efficacy (Ishikawa [1]): 98%
- IC50 (Ishikawa [1]): 7.2 nM
- ED50 (Rattus norvegicus [3]): < 1 mg/kg
- inhibition in vivo at 10 mg/kg (Rattus norvegicus [3]): 83%
- Efficacy (Ishikawa [4]): 19%
- ED50 (Rattus norvegicus [6]): 0.25 mg/kg
- Ki (Estrogen receptor): 1.03 nM
- Ki (Estrogen receptor beta): 2.1 nM

SMILES: CS(=O)(=O)c1ccc(-c2sc3cc(O)ccc3c2Oc2ccc(OCCN3CCCCC3)cc2)cc1
- Efficacy (Ishikawa [1]): 97%
- IC50 (Ishikawa [1]): 22.2 nM
- ED50 (Rattus norvegicus [3]): < 1 mg/kg
- inhibition in vivo at 10 mg/kg (Rattus norvegicus [3]): 83%
- Efficacy (Ishikawa [4]): 24%
- ED50 (Rattus norvegicus [6]): 0.62 mg/kg
- Ki (Estrogen receptor): 0.63 nM
- Ki (Estrogen receptor beta): 13.6 nM

SMILES: Oc1cccc(-c2ccc3cc(O)ccc3c2Oc2ccc(OCCN3CCCCC3)cc2)c1
- Efficacy (Ishikawa [1]): 100%
- IC50 (Ishikawa [1]): 2.1 nM
- concentration at 6 h [2]: 211 ng/mL
- ED50 (Rattus norvegicus [3]): < 1 mg/kg
- inhibition in vivo at 10 mg/kg (Rattus norvegicus [3]): 83%
- Efficacy (Ishikawa [4]): 26%
- concentration at 6 h [5]: 57 ng/g
- ED50 (Rattus norvegicus [6]): 0.13 mg/kg
- Ki (Estrogen receptor): 0.21 nM
- Ki (Estrogen receptor beta): 0.36 nM
- Kp [7]: 0.269

SMILES: Oc1ccc2c(Oc3ccc(OCCN4CCCCC4)cc3)c(-c3cccc(F)c3)ccc2c1
- Efficacy (Ishikawa [1]): 97%
- IC50 (Ishikawa [1]): 4.8 nM
- concentration at 6 h [2]: 137 ng/mL
- ED50 (Rattus norvegicus [3]): < 1 mg/kg
- inhibition in vivo at 10 mg/kg (Rattus norvegicus [3]): 83%
- Efficacy (Ishikawa [4]): 15%
- concentration at 6 h [5]: 730 ng/g
- ED50 (Rattus norvegicus [6]): 0.23 mg/kg
- Ki (Estrogen receptor): 0.18 nM
- Ki (Estrogen receptor beta): 0.16 nM
- Kp [7]: 5.37

SMILES: CS(=O)(=O)C1CC=C(c2ccc3cc(O)ccc3c2Oc2ccc(OCCN3CCCCC3)cc2)CC1 (centres undefined)
- Efficacy (Ishikawa [1]): 99%
- IC50 (Ishikawa [1]): 8 nM
- ED50 (Rattus norvegicus [3]): < 1 mg/kg
- inhibition in vivo at 10 mg/kg (Rattus norvegicus [3]): 83%
- Efficacy (Ishikawa [4]): 24%
- ED50 (Rattus norvegicus [6]): 0.26 mg/kg
- Ki (Estrogen receptor): 1.09 nM
- Ki (Estrogen receptor beta): 2.69 nM

SMILES: CCS(=O)(=O)c1ccc(-c2sc3cc(O)ccc3c2Oc2ccc(OCCN3CCCCC3)cc2)cc1
- Efficacy (Ishikawa [1]): 95%
- IC50 (Ishikawa [1]): 14.5 nM
- ED50 (Rattus norvegicus [3]): < 1 mg/kg
- inhibition in vivo at 10 mg/kg (Rattus norvegicus [3]): 83%
- Efficacy (Ishikawa [4]): 16%
- ED50 (Rattus norvegicus [6]): 0.56 mg/kg
- Ki (Estrogen receptor beta): 15.7 nM

SMILES: O=S1(=O)CCC(c2ccc3cc(O)ccc3c2Oc2ccc(OCCN3CCCCC3)cc2)CC1
- Efficacy (Ishikawa [1]): 93%
- IC50 (Ishikawa [1]): 15.7 nM
- ED50 (Rattus norvegicus [3]): < 1 mg/kg
- inhibition in vivo at 10 mg/kg (Rattus norvegicus [3]): 83%
- Efficacy (Ishikawa [4]): 27%
- ED50 (Rattus norvegicus [6]): 0.34 mg/kg
- Ki (Estrogen receptor): 1.89 nM
- Ki (Estrogen receptor beta): 4.11 nM

SMILES: C#CC1(O)CC[C@H]2[C@@H]3CCc4cc(O)ccc4[C@H]3CC[C@@]21C (single isomer, unassigned) [ETHINYL ESTRADIOL]
- Fold change (Rattus norvegicus [8]): 3

— ChEMBL document CHEMBL1145362, “Structure-activity relationships of SERMs optimized for uterine antagonism and ovarian safety” (Bioorg Med Chem Lett, 2007)
